ChEMBL document CHEMBL1765075, “Discovery and structure-activity relationship of 3-aminopyrid-2-ones as potent and selective interleukin-2 inducible T-cell kinase (Itk) inhibitors” (J Med Chem, 2011)
≈ marks a conversion by molar mass, not a printed value. Calls of active or inactive are those of the source. No cut-off for these calls is given here.

Key:
[1] = biological target: T1, Tyrosine-protein kinase ITK/TSK (Homo sapiens, UniProt Q08881); assay: Inhibition of Itk after 40 mins by radiometric phosphate incorporation assay
T1 sequence (Q08881 whole entry): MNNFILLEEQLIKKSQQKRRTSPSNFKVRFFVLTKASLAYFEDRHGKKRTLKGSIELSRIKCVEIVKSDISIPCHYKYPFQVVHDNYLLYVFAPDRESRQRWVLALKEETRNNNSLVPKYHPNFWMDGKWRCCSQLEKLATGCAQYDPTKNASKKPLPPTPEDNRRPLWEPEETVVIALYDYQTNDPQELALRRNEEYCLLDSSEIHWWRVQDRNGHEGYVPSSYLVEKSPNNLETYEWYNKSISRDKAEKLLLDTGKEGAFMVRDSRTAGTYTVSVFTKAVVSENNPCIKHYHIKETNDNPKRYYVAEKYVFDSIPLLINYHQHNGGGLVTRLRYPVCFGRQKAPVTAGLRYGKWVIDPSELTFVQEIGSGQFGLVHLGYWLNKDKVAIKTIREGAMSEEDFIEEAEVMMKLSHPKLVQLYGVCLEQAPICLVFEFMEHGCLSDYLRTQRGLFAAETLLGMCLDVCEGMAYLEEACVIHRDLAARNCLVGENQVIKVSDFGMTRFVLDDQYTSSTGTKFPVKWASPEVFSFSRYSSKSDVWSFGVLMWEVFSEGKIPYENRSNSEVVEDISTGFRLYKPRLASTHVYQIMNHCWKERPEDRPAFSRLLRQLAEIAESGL

[2] = biological target: Mast/stem cell growth factor receptor Kit (Homo sapiens, UniProt P10721); assay: Inhibition of c-Kit after 45 mins by radiometric phosphate incorporation assay
[3] = biological target: T2, Receptor-type tyrosine-protein kinase FLT3 (Homo sapiens, UniProt P36888); assay: Inhibition of Flt3 after 20 mins by radiometric phosphate incorporation assay
T2 sequence (P36888 whole entry): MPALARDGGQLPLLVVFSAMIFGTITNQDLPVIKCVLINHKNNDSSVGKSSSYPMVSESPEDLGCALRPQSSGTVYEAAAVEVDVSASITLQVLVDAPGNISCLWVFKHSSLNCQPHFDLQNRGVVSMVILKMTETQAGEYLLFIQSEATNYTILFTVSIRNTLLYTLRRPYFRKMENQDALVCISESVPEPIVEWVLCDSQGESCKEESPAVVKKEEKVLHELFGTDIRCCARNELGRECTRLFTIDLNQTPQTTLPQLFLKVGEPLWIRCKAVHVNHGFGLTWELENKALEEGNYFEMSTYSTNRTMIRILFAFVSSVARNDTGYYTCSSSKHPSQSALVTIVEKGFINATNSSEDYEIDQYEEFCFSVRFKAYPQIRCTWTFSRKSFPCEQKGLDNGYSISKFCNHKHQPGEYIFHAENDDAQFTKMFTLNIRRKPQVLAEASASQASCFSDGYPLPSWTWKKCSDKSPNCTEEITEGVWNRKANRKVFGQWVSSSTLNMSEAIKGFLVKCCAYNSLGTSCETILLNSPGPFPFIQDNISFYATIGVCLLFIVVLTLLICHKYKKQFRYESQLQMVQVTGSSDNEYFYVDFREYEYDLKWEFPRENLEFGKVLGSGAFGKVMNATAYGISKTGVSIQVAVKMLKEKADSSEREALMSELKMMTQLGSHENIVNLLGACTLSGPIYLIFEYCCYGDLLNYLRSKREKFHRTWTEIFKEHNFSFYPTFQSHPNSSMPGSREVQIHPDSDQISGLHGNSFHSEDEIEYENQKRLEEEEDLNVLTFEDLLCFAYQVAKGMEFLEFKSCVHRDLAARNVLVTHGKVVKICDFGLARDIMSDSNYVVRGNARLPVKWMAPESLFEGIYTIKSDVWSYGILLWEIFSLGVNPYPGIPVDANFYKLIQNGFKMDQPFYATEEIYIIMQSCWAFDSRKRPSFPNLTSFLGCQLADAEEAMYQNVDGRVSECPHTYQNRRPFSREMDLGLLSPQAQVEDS

[4] = biological target: Proto-oncogene tyrosine-protein kinase Src (Homo sapiens, UniProt P12931); assay: Inhibition of Src after 10 mins by radiometric phosphate incorporation assay
[5] = Solubility of the compound in phosphate buffer at pH 7.4 by high throughput shake flask assay; assay type: physicochemical
[6] = Permeability across apical to basolateral side of human Caco2 cells after 120 mins by LC-MS/MS analysis; assay type: ADME, cell-based; settings: Caco-2, read-out: permeability
[7] = Permeability across basolateral to apical side of human Caco2 cells after 120 mins by LC-MS/MS analysis; assay type: ADME, cell-based; settings: Caco-2, read-out: permeability
[8] = Octanol-phosphate buffer partition coefficient, log D of the compound at pH 7.4 by HPLC analysis; assay type: physicochemical
[9] = biological target: Tyrosine-protein kinase ITK/TSK (Homo sapiens) (UniProt Q08881); assay: Inhibition of Itk at 30 uM after 40 mins by radiometric phosphate incorporation assay
[10] = biological target: Tyrosine-protein kinase ITK/TSK (Homo sapiens) (UniProt Q08881); settings: 3 uM
Description: Inhibition of Itk at 3 uM after 40 mins by radiometric phosphate incorporation assay

Proto-oncogene tyrosine-protein kinase Src, sequence (P12931 2-536 limits assumed): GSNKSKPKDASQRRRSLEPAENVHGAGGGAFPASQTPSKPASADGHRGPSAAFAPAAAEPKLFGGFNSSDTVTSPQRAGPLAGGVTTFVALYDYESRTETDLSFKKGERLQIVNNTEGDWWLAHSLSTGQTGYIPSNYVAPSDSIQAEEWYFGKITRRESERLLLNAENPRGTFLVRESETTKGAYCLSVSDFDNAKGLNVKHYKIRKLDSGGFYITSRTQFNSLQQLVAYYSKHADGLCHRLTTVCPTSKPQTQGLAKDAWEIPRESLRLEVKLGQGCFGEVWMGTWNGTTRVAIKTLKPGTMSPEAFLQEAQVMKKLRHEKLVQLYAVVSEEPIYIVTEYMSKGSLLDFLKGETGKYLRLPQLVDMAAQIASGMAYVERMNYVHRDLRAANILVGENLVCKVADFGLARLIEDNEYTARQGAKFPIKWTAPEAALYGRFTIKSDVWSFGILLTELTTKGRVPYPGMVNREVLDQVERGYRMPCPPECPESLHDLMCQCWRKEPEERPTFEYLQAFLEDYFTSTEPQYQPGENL
Mast/stem cell growth factor receptor Kit, sequence (P10721 whole entry): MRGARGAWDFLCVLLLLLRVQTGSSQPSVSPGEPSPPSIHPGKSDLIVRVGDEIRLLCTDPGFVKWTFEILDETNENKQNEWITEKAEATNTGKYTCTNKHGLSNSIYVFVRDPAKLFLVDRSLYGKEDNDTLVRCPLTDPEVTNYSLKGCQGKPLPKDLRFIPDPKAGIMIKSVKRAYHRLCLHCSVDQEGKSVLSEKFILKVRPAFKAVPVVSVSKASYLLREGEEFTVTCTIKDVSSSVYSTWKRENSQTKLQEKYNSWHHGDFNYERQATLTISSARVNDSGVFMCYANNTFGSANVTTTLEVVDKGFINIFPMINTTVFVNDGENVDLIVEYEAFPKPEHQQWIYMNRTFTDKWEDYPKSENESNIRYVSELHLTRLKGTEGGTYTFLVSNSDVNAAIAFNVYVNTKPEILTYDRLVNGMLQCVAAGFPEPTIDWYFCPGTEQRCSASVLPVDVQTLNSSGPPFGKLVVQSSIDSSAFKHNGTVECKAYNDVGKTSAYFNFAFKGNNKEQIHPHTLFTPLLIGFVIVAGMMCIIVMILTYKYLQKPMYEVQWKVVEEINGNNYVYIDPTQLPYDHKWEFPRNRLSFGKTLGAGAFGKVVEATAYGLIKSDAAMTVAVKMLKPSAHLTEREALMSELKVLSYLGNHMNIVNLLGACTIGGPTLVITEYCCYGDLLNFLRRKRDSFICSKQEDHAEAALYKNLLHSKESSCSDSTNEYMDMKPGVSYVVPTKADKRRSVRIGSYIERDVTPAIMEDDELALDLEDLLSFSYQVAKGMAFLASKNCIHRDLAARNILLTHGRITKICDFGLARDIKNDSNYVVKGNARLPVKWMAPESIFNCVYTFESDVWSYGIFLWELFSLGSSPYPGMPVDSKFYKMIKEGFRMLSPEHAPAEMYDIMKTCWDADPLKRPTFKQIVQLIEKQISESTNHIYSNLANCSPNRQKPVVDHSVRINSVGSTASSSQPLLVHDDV

Row | SMILES | Ki [1] [µM] | Ki [2] [µM] | Ki [3] [µM] | Ki [4] [µM] | further results
1 | CNc1cccc(-c2c[nH]c(=O)c(NC(=O)c3ccc(N4CCCCC4)cc3)c2)c1 | 0.145 | 0.081 | 0.08 | 0.22 | –
2 | CNc1cc(C#N)cc(-c2c[nH]c(=O)c(NC(=O)c3ccc(N4CCC[C@H]4CN4CCCC4)cc3)c2)c1 | 0.027 | 0.4 | 0.41 | 0.48 | solubility thermodynamic [5]: 0.023 mg/mL (≈ 46.3 µM); Papp A→B at 2 h [6]: 33 nm/s; Papp B→A at 2 h [7]: 164 nm/s; logD [8]: 3.9
3 | O=C(Nc1cc(-c2ccncc2)c[nH]c1=O)c1ccc(C2CCCCC2)cc1 | 0.22 | – | – | – | –
4 | Nc1cc(-c2ccncc2)c[nH]c1=O | – | – | – | – | inhibition [9]: inactive
5 | N#Cc1ccc(C(=O)Nc2cc(-c3ccncc3)c[nH]c2=O)cc1 | > 6 | – | – | – | inhibition [10]: 15%
6 | CNc1cc(-c2c[nH]c(=O)c(NC(=O)c3ccc(N4CCCCC4)cc3)c2)ccn1 | – | 0.012 | 0.006 | – | –
7 | CNc1cccc(-c2c[nH]c(=O)c(NC(=O)c3ccc(N4CCCCC4)cc3)c2)n1 | – | 0.148 | 0.069 | – | –
8 | CNc1nccc(-c2c[nH]c(=O)c(NC(=O)c3ccc(N4CCCCC4)cc3)c2)n1 | 0.016 | < 0.01 | 0.005 | – | –
9 | CN(C)c1ccc(C(=O)Nc2cc(-c3ccncc3)c[nH]c2=O)cc1 | 0.21 | 0.046 | 0.008 | 2.8 | –
10 | Cc1cccc(C(=O)Nc2cc(-c3ccncc3)c[nH]c2=O)c1 | 2.1 | – | – | – | –
11 | CNc1cc(F)cc(-c2c[nH]c(=O)c(NC(=O)c3ccc(N4CCC[C@H]4CN4CCCC4)cc3)c2)c1 | 0.02 | 0.4 | 0.08 | 0.3 | solubility thermodynamic [5]: 0.034 mg/mL (≈ 69.4 µM); Papp A→B at 2 h [6]: 33 nm/s; Papp B→A at 2 h [7]: 199 nm/s; logD [8]: 3.9
12 | CC(C)(C)c1ccc(C(=O)Nc2cc(-c3ccncc3)c[nH]c2=O)cc1 | 0.12 | 0.027 | 0.011 | 1.32 | –
13 | CNc1cncc(-c2c[nH]c(=O)c(NC(=O)c3ccc(N4CCCCC4)cc3)c2)c1 | – | 0.27 | 1.05 | – | –
14 | O=C(Cc1ccccc1)Nc1cc(-c2ccncc2)c[nH]c1=O | > 30 | – | – | – | –
15 | O=C(Nc1ccc(N2CCCCC2)cc1)c1cc(-c2ccncc2)c[nH]c1=O | 0.14 | – | – | – | –
16 | O=C(Nc1cc(-c2ccncc2)c[nH]c1=O)c1ccccc1 | 1.3 | – | – | – | –

The next lines start with results.

Row | Ki [1] [µM] | Ki [2] [µM] | Ki [3] [µM] | Ki [4] [µM] | SMILES | further results
17 | > 2 | – | 0.12 | > 4 | O=C(Nc1cc(-c2cccc(NC3CC3)n2)c[nH]c1=O)c1ccc(N2CCCCC2)cc1 | –
18 | – | 0.083 | 0.02 | – | CNc1cc(-c2c[nH]c(=O)c(NC(=O)c3ccc(N4CCCCC4)cc3)c2)ncn1 | –
19 | – | 0.155 | 0.11 | – | CNc1cncc(-c2c[nH]c(=O)c(NC(=O)c3ccc(N4CCCCC4)cc3)c2)n1 | –
20 | 0.02 | 1.3 | 0.14 | 0.28 | CNc1cncc(-c2c[nH]c(=O)c(NC(=O)c3ccc(N4CCC[C@H]4CN4CCCC4)cc3)c2)c1 | solubility thermodynamic [5]: 0.115 mg/mL (≈ 243 µM); logD [8]: 2.9
21 | > 30 | – | – | – | O=C(Nc1cc(-c2ccncc2)c[nH]c1=O)C1CCCCC1 | –
22 | 0.17 | – | – | – | O=C(Nc1cc(-c2ccncc2)c[nH]c1=O)c1ccc(N2CCCC2)cc1 | –
23 | 0.53 | – | – | – | CCc1ccc(C(=O)Nc2cc(-c3ccncc3)c[nH]c2=O)cc1 | –
24 | – | 0.012 | 0.032 | 1.8 | O=C(Nc1cc(-c2ccncc2)c[nH]c1=O)c1ccc(N2CCCCC2)cc1 | –
